Results from ChEMBL document CHEMBL3046563, “Synthesis and antihypertensive activity evaluation in spontaneously hypertensive rats of nitrendipine analogues” (2011).

Legend:
Assay type in all cases: functional, Artery
Conditions in all cases: route intragastric
Rattus norvegicus [1] = test: Antihypertensive activity in spontaneously hypertensive Rattus norvegicus (rat) assessed as reduction of systolic blood pressure at 2 mg/kg, ig after 1 hr
Rattus norvegicus [2] = test: Antihypertensive activity in spontaneously hypertensive Rattus norvegicus (rat) assessed as reduction of systolic blood pressure at 2 mg/kg, ig after 4 hr
Rattus norvegicus [3] = test: Antihypertensive activity in spontaneously hypertensive Rattus norvegicus (rat) assessed as reduction of systolic blood pressure at 1 mg/kg, ig after 2 hr
Rattus norvegicus [4] = test: Antihypertensive activity in spontaneously hypertensive rat assessed as reduction of systolic blood pressure at 2 mg/kg, ig after 2 hr
Rattus norvegicus [5] = test: Antihypertensive activity in spontaneously hypertensive Rattus norvegicus (rat) assessed as reduction of systolic blood pressure at 1 mg/kg, ig after 1 hr
Rattus norvegicus [6] = test: Antihypertensive activity in spontaneously hypertensive Rattus norvegicus (rat) assessed as reduction of systolic blood pressure at 4 mg/kg, ig after 8 hr
Rattus norvegicus [7] = test: Antihypertensive activity in spontaneously hypertensive Rattus norvegicus (rat) assessed as reduction of systolic blood pressure at 4 mg/kg, ig after 6 hr
Rattus norvegicus [8] = test: Antihypertensive activity in spontaneously hypertensive Rattus norvegicus (rat) assessed as reduction of systolic blood pressure at 4 mg/kg, ig after 4 hr
Rattus norvegicus [9] = test: Antihypertensive activity in spontaneously hypertensive Rattus norvegicus (rat) assessed as reduction of systolic blood pressure at 4 mg/kg, ig after 2 hr
Rattus norvegicus [10] = test: Antihypertensive activity in spontaneously hypertensive Rattus norvegicus (rat) assessed as reduction of systolic blood pressure at 4 mg/kg, ig after 1 hr

Molecule `CCOC(=O)C1=C(C)NC(C)=C(C(=O)OC)C1c1cccc([N+](=O)[O-])c1` (stereo in doubt; 1) [NITRENDIPINE] has an Activity (Rattus norvegicus [1]; 2 mg/kg) of 26 mmHg.

`CCCCCCCCCCOC(=O)C1=C(C)NC(C)=C(C(=O)OC)C1c1cccc([N+](=O)[O-])c1` (configuration not stated) was tested, and the Activity (Rattus norvegicus [1]) was 31 mmHg.

`CCCCCOC(=O)C1=C(C)NC(C)=C(C(=O)OC)C1c1cccc([N+](=O)[O-])c1` (configuration not stated) showed an Activity (Rattus norvegicus [1]) of 44 mmHg.

For `CCCCCCCCOC(=O)C1=C(C)NC(C)=C(C(=O)OC)C1c1cccc([N+](=O)[O-])c1` (configuration not stated), the Activity (Rattus norvegicus [1]) was 38 mmHg.

Molecule `CCOC(=O)C1=C(C)NC(C)=C(C(=O)OC)C1c1cccc([N+](=O)[O-])c1` (stereo in doubt; 2) [NITRENDIPINE] has an Activity (Rattus norvegicus [2]) of -2 mmHg, an Activity (Rattus norvegicus [3]) of 0 mmHg and an Activity (Rattus norvegicus [4]) of 8 mmHg. The Activity (Rattus norvegicus [5]) was 33 mmHg and the Activity (Rattus norvegicus [1]; 2 mg/kg) was 39 mmHg.

`CCCOC(=O)C1=C(C)NC(C)=C(C(=O)OC)C1c1cccc([N+](=O)[O-])c1` (configuration not stated) gave an Activity (Rattus norvegicus [1]) of 43 mmHg.

Molecule `CCCCCCCOC(=O)C1=C(C)NC(C)=C(C(=O)OC)C1c1cccc([N+](=O)[O-])c1` (racemic) has an Activity (Rattus norvegicus [6]) of 21 mmHg, an Activity (Rattus norvegicus [7]) of 45 mmHg and an Activity (Rattus norvegicus [8]) of 67 mmHg. For the same molecule, the Activity (Rattus norvegicus [2]) was -4 mmHg, the Activity (Rattus norvegicus [9]) was 107 mmHg and the Activity (Rattus norvegicus [4]) was 42 mmHg. The Activity (Rattus norvegicus [10]) was 119 mmHg and the Activity (Rattus norvegicus [1]) was 52 mmHg.

`CCCCCCCCCCCCOC(=O)C1=C(C)NC(C)=C(C(=O)OC)C1c1cccc([N+](=O)[O-])c1` (configuration not stated) was tested, and the Activity (Rattus norvegicus [1]) was 17 mmHg.

For `CCCCCCCOC(=O)C1=C(C)NC(C)=C(C(=O)OC)[C@@H]1c1cccc([N+](=O)[O-])c1`, the Activity (Rattus norvegicus [2]) was -2 mmHg, the Activity (Rattus norvegicus [4]) was 47 mmHg and the Activity (Rattus norvegicus [1]) was 93 mmHg.
